Results reported in US7378404B2, “8β-hydrocarbyl-substituted estratrienes for use as selective estrogens” (priority 2000, dated 2008).

Legend:
[1] = test system: estrogen receptor of rat prostates; test: Competitive binding with 3H-estradiol to estrogen receptor preparation of rat prostate cytosol; settings: for Rat prost. ER (RBA): Table 1, estradiol = 100; for RBA Rat Prostate: Table 2; for binding affinity to estrogen receptor of rat prostates compared with estrogen receptor of rat uteri: rat prostate ER versus rat uterus ER
[2] = test system: hERβ; test: Relative binding affinity (RBA) to hERβ, cited from Kuiper et al.; design: species or system human; settings: quotient of RBA hERβ / hERα
Source text: In this case, it is assumed that ERβ predominates in the rat prostates over ERα, and ERα predominates in rat uteri over ERβ.

[3] = test system: hERβ; settings: estradiol = 100; cited from earlier work
[4] = target: T1, estrogen receptor of rat uteri (Rattus norvegicus, UniProt P06211); test: Competitive binding with 3H-estradiol to estrogen receptor preparation of rat uterus cytosol; settings: for RBA Rat Uterus: Table 2
T1 construct: The preparation of rat uterus cytosol as well as the receptor test with the ER-containing cytosol; from tissue; host or cells: rat uterus cytosol
T1 sequence (P06211 1-600): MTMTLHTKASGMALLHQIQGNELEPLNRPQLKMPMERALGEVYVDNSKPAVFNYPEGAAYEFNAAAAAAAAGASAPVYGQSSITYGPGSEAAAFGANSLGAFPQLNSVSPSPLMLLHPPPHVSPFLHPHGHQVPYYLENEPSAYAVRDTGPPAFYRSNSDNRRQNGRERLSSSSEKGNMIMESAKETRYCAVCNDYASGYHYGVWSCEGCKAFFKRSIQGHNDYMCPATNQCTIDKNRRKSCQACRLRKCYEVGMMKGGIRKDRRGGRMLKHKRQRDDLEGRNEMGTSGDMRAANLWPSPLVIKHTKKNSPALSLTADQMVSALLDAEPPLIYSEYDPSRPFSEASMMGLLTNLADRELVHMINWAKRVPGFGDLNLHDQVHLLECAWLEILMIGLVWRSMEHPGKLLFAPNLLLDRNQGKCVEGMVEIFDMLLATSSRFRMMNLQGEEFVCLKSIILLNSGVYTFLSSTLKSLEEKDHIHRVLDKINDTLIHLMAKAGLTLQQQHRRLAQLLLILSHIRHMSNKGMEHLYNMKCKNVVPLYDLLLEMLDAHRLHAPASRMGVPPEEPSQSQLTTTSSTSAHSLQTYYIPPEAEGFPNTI

[5] = test system: 5HT2a-receptor and serotonin transporter; test: Expression of 5HT2a-receptor and serotonin transporter in ERβ-rich brain areas after one-time administration in rats; assay type: in vivo; settings: rat brain
Protocol: Compared to the effect on the serotonin receptor and transporter expression, the effect on the LH-secretion is measured. […] The density of serotonin receptors and transporters is determined in brain sections using radioactive ligands, and the corresponding mRNA is determined using in situ hybridization. The method is described in the literature: G. Fink & B. E. H. Sumner 1996 Nature 383: 306; B. E. H. Sumner et al. 1999 Molecular Brain Research, in press.

Structure (SMILES): O=c1c(-c2ccc(O)cc2)coc2cc(O)cc(O)c12 [Genisteine, reference compound]
- Rat prost. ER (RBA) [1]: 10

Structure (SMILES): C[C@]12CC[C@H]3[C@@H](CC=C4C[C@@H](O)CC[C@@]43C)[C@@H]1CC[C@@H]2O [5-Androstenediol, reference compound]
- ERβ/ERα [2]: 3
- hERβ RBA [3]: 17
- Rat prost. ER (RBA) [1]: 5
- prost. ER/uterus ER ([1]; ratio of RBA rat prostate ER / rat uterus ER): 50
- Rat uterus ER (RBA) ([4]; Table 1, estradiol = 100): 0.1

Structure (SMILES): C=C[C@@]12CCc3cc(O)ccc3[C@H]1CC[C@@]1(C)[C@H]2CC[C@@H]1O [B, 8β-vinyl-estra-1,3,5(10)-triene-3,17β-diol]
- expression of the serotonin receptor and transporter [5]: increased expression
- RBA Rat Prostate [1]: 63
- binding affinity to estrogen receptor of rat prostates compared with estrogen receptor of rat uteri [1]: higher binding affinity
- RBA Rat Uterus [4]: 0.7

Structure (SMILES): CC[C@@]12CCc3cc(O)ccc3[C@H]1CC[C@@]1(C)[C@H]2CC[C@@H]1O [E, 8β-ethyl-estra-1,3,5(10)-triene-3,17β-diol]
- expression of the serotonin receptor and transporter [5]: increased expression
- RBA Rat Prostate [1]: 7
- binding affinity to estrogen receptor of rat prostates compared with estrogen receptor of rat uteri [1]: higher binding affinity
- RBA Rat Uterus [4]: <0.3

Structure (SMILES): C[C@@]12CCc3cc(O)ccc3[C@H]1CC[C@@]1(C)[C@H]2CC[C@@H]1O [D, 8β-methyl-estra-1,3,5(10)-triene-3,17β-diol]
- expression of the serotonin receptor and transporter [5]: increased expression
- RBA Rat Prostate [1]: 67
- binding affinity to estrogen receptor of rat prostates compared with estrogen receptor of rat uteri [1]: higher binding affinity
- RBA Rat Uterus [4]: 1.3

Structure (SMILES): C[C@]12CC[C@@H]3c4ccc(O)cc4CC[C@H]3[C@@H]1C[C@@H](O)[C@@H]2O [Estriol]
- hERβ RBA [3]: 21

Structure (SMILES): C=C[C@@]12CCc3cc(O)ccc3C1=CC[C@@]1(C)[C@H]2CC[C@@H]1O [A, 8β-Vinyl-estra-1,3,5(10),9(11)-tetraene-3,17β-diol]
- expression of the serotonin receptor and transporter [5]: increased expression
- RBA Rat Prostate [1]: 83
- binding affinity to estrogen receptor of rat prostates compared with estrogen receptor of rat uteri [1]: higher binding affinity
- RBA Rat Uterus [4]: 1

Structure (SMILES): C[C@]12CC[C@@H]3c4ccc(O)cc4CC[C@H]3[C@@H]1CC[C@H]2O [17α-Estradiol, reference compound]
- Rat prost. ER (RBA) [1]: 1.3

Structure (SMILES): COc1ccc2c(c1)CC[C@]1(C)C2=CC[C@@]2(C)[C@H]1CC[C@@H]2O
- melting point: 168 °C

Structure (SMILES): C[C@]12CC[C@@H]3c4ccc(O)cc4CC[C@@]3(C=C(F)F)[C@@H]1CC[C@@H]2O [C, 8β-(2,2-difluorovinyl)-estra-1,3,5(10)-triene-3,17β-diol]
- expression of the serotonin receptor and transporter [5]: increased expression
- RBA Rat Prostate [1]: 5
- binding affinity to estrogen receptor of rat prostates compared with estrogen receptor of rat uteri [1]: higher binding affinity
- RBA Rat Uterus [4]: 0.9
